# Results published in patent US9403810B2, “Carboxamide derivatives” (Novartis AG, priority 2014, dated 2016).
# Target: Smurf-1 (Homo sapiens (Human), UniProt Q9HCE7)
# Assay: HECT E3 ligase autoubiquitinylation TR-FRET assay (Smurf-1)
# Format: biochemical
# Settings: 8-point dose-response curve, 3 nM to 10 uM; 45 min incubation
# Description: To determine the HECT E3 ligase selectivity of the compounds, a panel of biochemical HECT E3 ligase autoubiquitinylation assays was employed (Smurf-1, Smurf-2, WWP1, WWP2, ITCH, Nedd4, Nedd4L and E6AP). The conjugation of ubiquitin to a protein substrate is a multistep process. In an initial ATP-requiring step, a thioester bond is formed between the carboxyl terminus of ubiquitin and an internal cystein residue of the ubiquitin-activating enzyme (E1). Activated ubiquitin is then transferred to a specific cystein residue of an ubiquitin-conjugating enzyme (E2). E2s donate ubiquitin to a HECT E3 ligase (E3) from which it is transferred to the substrate protein. HECT E3 ligases can auto-ubiquitinylate. This event is detected in the TR-FRET (Time-Resolved Fluorescence Resonance Energy Transfer) assay used in this panel. The reaction mix contains E1, E2, tagged-E3, biotin-conjugated ubiquitin, the compound and ATP in a suitable buffer and is incubated for 45 minutes to allow auto-ubiquitinylation of the E3 ligase. To measure the extent of ubiquitinylated E3 ligase by TR-FRET, the donor fluorophore Europium cryptate (Eu3+ cryptate), conjugated to streptavidin which subsequently binds to biotinylated ubiquitin, and the modified allophycocyanin XL665 (HTRF® primary acceptor fluorophore) coupled to a tag-specific antibody (HA, His or GST), which recognizes the respective E3 ligase fusion proteins, are added after the reaction is complete. When these two fluorophores are brought together by a bimolecular interaction (in this case ubiquitinylation of the E3 ligase), a portion of the energy captured by the Cryptate during excitation is released through fluorescence emission at 620 nm, while the remaining energy is transferred to XL665. This energy is then released by XL665 as specific fluorescence at 665 nm. Light at 665 nm is emitted only through FRET with Europium.
# Test and reference compounds are prepared at 180× [final] in 90% DMSO, and diluted 1:3 in 90% DMSO.
# For the biochemical assay panel, 50 nl of the test compounds, reference compounds and buffer/DMSO control are transferred to the respective wells of a 384-well white GREINER “SMALL VOLUME” PS plate. The assay panel is run at room temperature on a Biomek FX liquid handling workstation. To the assay plates containing 50 nl compound or control solutions in 90% DMSO, 4.5 ul of E3 ligase solution were added per well, followed by 4.5 ul of the pre-incubated E1/E2/Ub mix or the pre-diluted ubiquitin (LOW control). Plates are shaken vigorously after each addition. In this assay the compound concentrations range from 3 nM to 10 uM in an 8-point dose-response curve.
# After an incubation time of 45 min in the dark, the plates are transferred into the Pherastar fluorescence reader to measure the TR-FRET signal.
# Chain of Smurf-1 (Q9HCE7 whole entry): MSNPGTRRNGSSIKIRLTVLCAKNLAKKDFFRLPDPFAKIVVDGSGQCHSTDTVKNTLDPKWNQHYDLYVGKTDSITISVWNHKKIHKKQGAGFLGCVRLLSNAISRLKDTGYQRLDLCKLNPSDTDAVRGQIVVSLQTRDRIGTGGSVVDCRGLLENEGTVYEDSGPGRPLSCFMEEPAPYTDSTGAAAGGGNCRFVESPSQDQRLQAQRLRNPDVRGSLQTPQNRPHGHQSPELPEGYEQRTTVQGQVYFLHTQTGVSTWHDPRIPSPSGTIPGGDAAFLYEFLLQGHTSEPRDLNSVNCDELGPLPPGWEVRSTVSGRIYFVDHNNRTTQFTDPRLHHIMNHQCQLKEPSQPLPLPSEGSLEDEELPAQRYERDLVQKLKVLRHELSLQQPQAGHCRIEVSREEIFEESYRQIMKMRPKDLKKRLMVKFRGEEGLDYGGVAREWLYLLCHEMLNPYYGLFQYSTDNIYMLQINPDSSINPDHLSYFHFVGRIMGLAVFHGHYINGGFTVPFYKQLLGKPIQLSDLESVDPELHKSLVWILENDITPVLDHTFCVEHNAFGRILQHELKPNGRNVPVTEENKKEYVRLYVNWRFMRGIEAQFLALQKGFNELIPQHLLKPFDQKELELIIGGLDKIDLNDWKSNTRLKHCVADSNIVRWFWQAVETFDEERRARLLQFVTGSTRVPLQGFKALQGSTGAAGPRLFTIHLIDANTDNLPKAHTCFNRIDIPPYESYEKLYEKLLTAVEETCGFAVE
row,Compound,IC50
1,"Cc1c(C(=O)Nc2c(C)n(C)n(C3CCCCC3)c2=O)noc1[C@@H]1CCC[C@H](C(C)(C)C)O1 (single isomer, unassigned) [Example 16, 5-((2S,6R)-6-(tert-butyl)tetrahydro-2H-pyran-2-yl)-N-(2-cyclohexyl-1,5-dimethyl-3-oxo-2,3-dihydro-1H-pyrazol-4-yl)-4-methylisoxazole-3-carboxamide or 5-((2R,6S)-6-(tert-butyl)tetrahydro-2H-pyran-2-yl)-N-(2-cyclohexyl-1,5-dimethyl-3-oxo-2,3-dihydro-1H-pyrazol-4-yl)-4-methylisoxazole-3-carboxamide]",37 nM
2,"Cc1c(C(=O)Nc2c(C)n(C)n(C3CCCCC3)c2=O)noc1C1CC(Br)C(C)CO1 (stereo not shown) [Example 21.1, 5-(4-Bromo-5-methyltetrahydro-2H-pyran-2-yl)-N-(2-cyclohexyl-1,5-dimethyl-3-oxo-2,3-dihydro-1H-pyrazol-4-yl)-4-methylisoxazole-3-carboxamide]",630 nM
3,"CCC1CC=C(c2onc(C(=O)Nc3c(C)n(C)n(C4CCCCC4)c3=O)c2C)CC1 (stereo not shown) [Example 1.3, N-(2-Cyclohexyl-1,5-dimethyl-3-oxo-2,3-dihydro-1H-pyrazol-4-yl)-5-(4-ethylcyclohex-1-en-1-yl)-4-methylisoxazole-3-carboxamide]",1.8 nM
4,"Cc1c(C(=O)Nc2c(C)n(C)n(C3CCCCC3)c2=O)noc1C1=CCC(C(C)C)CC1 (stereo not shown) [Example 1, N-(2-Cyclohexyl-1,5-dimethyl-3-oxo-2,3-dihydro-1H-pyrazol-4-yl)-5-(4-isopropylcyclohex-1-en-1-yl)-4-methylisoxazole-3-carboxamide]",2.8 nM
5,"Cc1c(C(=O)Nc2c(C)n(C)n(C3CCCCC3)c2=O)noc1C1CCC(C)(C)C1 (stereo not shown) [Example 6.1, N-(2-Cyclohexyl-1,5-dimethyl-3-oxo-2,3-dihydro-1H-pyrazol-4-yl)-5-(3,3-dimethylcyclopentyl)-4-methylisoxazole-3-carboxamide]",23 nM
6,"Cc1c(C(=O)Nc2c(C)n(C)n(C3CCCCC3)c2=O)noc1C1=CCC(OC(C)C)CC1 (stereo not shown) [Example 5, N-(2-Cyclohexyl-1,5-dimethyl-3-oxo-2,3-dihydro-1H-pyrazol-4-yl)-5-(4-isopropoxycyclohex-1-en-1-yl)-4-methylisoxazole-3-carboxamide]",310 nM
7,"Cc1c(C(=O)Nc2c(C)n(C)n(C3CCCCC3)c2=O)noc1C1=CCCCC1(C)C [Example 1.2, N-(2-Cyclohexyl-1,5-dimethyl-3-oxo-2,3-dihydro-1H-pyrazol-4-yl)-5-(6,6-dimethylcyclohex-1-en-1-yl)-4-methylisoxazole-3-carboxamide]",14 nM
8,"Cc1c(C(=O)Nc2c(C)n(C)n(C3CCC3)c2=O)noc1[C@@H]1CCC[C@H](C(C)(C)C)O1 (single isomer, unassigned) [Example 15a, 5-((2S,6R)-6-(tert-Butyl)tetrahydro-2H-pyran-2-yl)-N-(2-cyclobutyl-1,5-dimethyl-3-oxo-2,3-dihydro-1H-pyrazol-4-yl)-4-methylisoxazole-3-carboxamide or 5-((2R,6S)-6-(tert-Butyl)tetrahydro-2H-pyran-2-yl)-N-(2-cyclobutyl-1,5-dimethyl-3-oxo-2,3-dihydro-1H-pyrazol-4-yl)-4-methylisoxazole-3-carboxamide]",290 nM
9,"Cc1c(C(=O)Nc2c(C)n(C)n(C3CCCCC3)c2=O)noc1C1OCC(C)(C)CO1 [Example 26, N-(2-Cyclohexyl-1,5-dimethyl-3-oxo-2,3-dihydro-1H-pyrazol-4-yl)-5-(5,5-dimethyl-1,3-dioxan-2-yl)-4-methylisoxazole-3-carboxamide]",580 nM
10,"Cc1c(C(=O)Nc2c(C)n(C)n(C3CCCCC3)c2=O)noc1CCC(C)(C)C [Example 7, N-(2-Cyclohexyl-1,5-dimethyl-3-oxo-2,3-dihydro-1H-pyrazol-4-yl)-5-(3,3-dimethylbutyl)-4-methylisoxazole-3-carboxamide]",19 nM
11,"Cc1c(C(=O)Nc2c(C)n(C)n(C3CCCCC3)c2=O)noc1C1=CCC2(CCCC2)CC1 [Example 2, N-(2-Cyclohexyl-1,5-dimethyl-3-oxo-2,3-dihydro-1H-pyrazol-4-yl)-4-methyl-5-(spiro[4.5]dec-7-en-8-yl)isoxazole-3-carboxamide]",2.5 nM
12,"Cc1c(C(=O)Nc2c(C)n(C)n(C3CCCCC3)c2=O)noc1C1CCCCC1 [Example 10, 5-Cyclohexyl-N-(2-cyclohexyl-1,5-dimethyl-3-oxo-2,3-dihydro-1H-pyrazol-4-yl)-4-methylisoxazole-3-carboxamide]",50 nM
13,"Cc1c(C(=O)Nc2c(C)n(C)n(C3CCCCC3)c2=O)noc1C1=CCC2(CCOC2)CC1 (stereo not shown) [Example 4, N-(2-Cyclohexyl-1,5-dimethyl-3-oxo-2,3-dihydro-1H-pyrazol-4-yl)-4-methyl-5-(2-oxaspiro[4.5]dec-7-en-8-yl)isoxazole-3-carboxamide]",100 nM
14,"Cc1c(C(=O)Nc2c(C)n(C)n(C3CCCCC3)c2=O)noc1[C@@H]1OCC(C)(C)O[C@H]1C [Example 20, N-(2-Cyclohexyl-1,5-dimethyl-3-oxo-2,3-dihydro-1H-pyrazol-4-yl)-4-methyl-5-((2R,3S)-3,5,5-trimethyl-1,4-dioxan-2-yl)isoxazole-3-carboxamide]",180 nM
15,"CC1=CCC(c2onc(C(=O)Nc3c(C)n(C)n(C4CCCCC4)c3=O)c2C)OC1 (stereo not shown) [Example 21.2, N-(2-cyclohexyl-1,5-dimethyl-3-oxo-2,3-dihydro-1H-pyrazol-4-yl)-4-methyl-5-(5-methyl-3,6-dihydro-2H-pyran-2-yl)isoxazole-3-carboxamide]",490 nM
16,"CO[C@H]1C[C@@H](c2onc(C(=O)Nc3c(C)n(C)n(C4CCCCC4)c3=O)c2C)O[C@@H](C(C)(C)C)C1 (single isomer, unassigned) [Example 13b, 5-((2S,4R,6R)-6-(tert-butyl)-4-methoxytetrahydro-2H-pyran-2-yl)-N-(2-cyclohexyl-1,5-dimethyl-3-oxo-2,3-dihydro-1H-pyrazol-4-yl)-4-methylisoxazole-3-carboxamide or 5-((2R,4S,6S)-6-(tert-butyl)-4-methoxytetrahydro-2H-pyran-2-yl)-N-(2-cyclohexyl-1,5-dimethyl-3-oxo-2,3-dihydro-1H-pyrazol-4-yl)-4-methylisoxazole-3-carboxamide]",730 nM
17,"Cc1c(C(=O)Nc2c(C)n(C)n(C3CCCCC3)c2=O)noc1C1=CCC(C)(C)CC1 [Example 2.2, N-(2-Cyclohexyl-1,5-dimethyl-3-oxo-2,3-dihydro-1H-pyrazol-4-yl)-5-(4,4-dimethylcyclohex-1-en-1-yl)-4-methylisoxazole-3-carboxamide]",0.9 nM
18,"Cc1c(C(=O)Nc2c(C)n(C)n(C3CCCCC3)c2=O)noc1/C=C\C(C)(C)C [Example 8, (Z)—N-(2-Cyclohexyl-1,5-dimethyl-3-oxo-2,3-dihydro-1H-pyrazol-4-yl)-5-(3,3-dimethylbut-1-en-1-yl)-4-methylisoxazole-3-carboxamide]",46 nM
19,"Cc1c(C(=O)Nc2c(C)n(C)n(C3CCCCC3)c2=O)noc1/C=C/C(C)(C)C [Example 9, (E)-N-(2-Cyclohexyl-1,5-dimethyl-3-oxo-2,3-dihydro-1H-pyrazol-4-yl)-5-(3,3-dimethylbut-1-en-1-yl)-4-methylisoxazole-3-carboxamide]",58 nM
20,"Cc1c(C(=O)Nc2c(C)n(C)n(C3CCCCC3)c2=O)noc1C1CCC(C)(C)CC1 [Example 6, N-(2-Cyclohexyl-1,5-dimethyl-3-oxo-2,3-dihydro-1H-pyrazol-4-yl)-5-(4,4-dimethylcyclohexyl)-4-methylisoxazole-3-carboxamide]",5.7 nM
21,"Cc1c(C(=O)Nc2c(C)n(C)n(C3CCCCC3)c2=O)noc1C1=CCC(C)(C)C1 [Example 3, N-(2-Cyclohexyl-1,5-dimethyl-3-oxo-2,3-dihydro-1H-pyrazol-4-yl)-5-(4,4-dimethylcyclopent-1-en-1-yl)-4-methylisoxazole-3-carboxamide]",6 nM
22,"Cc1c(C(=O)Nc2c(C)n(C)n(C3CCCCC3)c2=O)noc1C1CCC2(CC1)OCCO2 [Example 11, N-(2-Cyclohexyl-1,5-dimethyl-3-oxo-2,3-dihydro-1H-pyrazol-4-yl)-4-methyl-5-(1,4-dioxaspiro[4.5]decan-8-yl)isoxazole-3-carboxamide]",420 nM
